Results: US20130261177A1, “COMPOUNDS CAPABLE OF MODULATING/PRESERVING ENDOTHELIAL INTEGRITY FOR USE IN PREVENTION OR TREATMENT OF ACUTE TRAUMATIC COAGULOPATHY AND RESUSCITATED CARDIAC ARREST” (priority 2010, published 2013)

Tests used:
[1] = tested on: whole blood platelet aggregation; assay: Whole blood impedance aggregometry (Multiplate) in healthy volunteers infused with flolan; type: in vivo, human; details: 6 healthy volunteers, 4 ng/kg/min intravenously, after 60 and 120 min infusion
Experimental: (§1) Six healthy volunteers were administered flolan (Prostacycline) intravenously at a dose of 4 ng/kg/min for 2 h. Blood samples for whole blood viscoelastical assay (Thrombelastography [TEG]) and whole blood platelet aggregation (Multiplate) were obtained before infusion of Flolan, after 60 min infusion of Flolan and after 120 min infusion of Flolan.
Whole blood impedance aggregometry was analyzed by the Multiple Platelet function Analyzer (MultiPlate® analyzer). Analysis employing various platelet agonists: ASPItest (activation by arachidonic acid), COLtest (activation by collagen through the collagen receptor), TRAPtest (activation by TRAP-6 stimulates the thrombin receptor on the platelet surface and ADPtest (activation by ADP stimulates platelet activation by the ADP receptors).
MultiPlate continuously records platelet aggregation. The increase of impedance by the attachment of platelets onto the Multiplate sensors is transformed to arbitrary aggregation units (AU) and plotted against time as depicted in FIG. 2.

Protein C = assay: Plasma biomarker ELISA after Flolan infusion in healthy volunteers: Protein C; type: in vivo, human; details: 4 ng/kg/min intravenously for 2 h, in the hours after ceasing the infusion
Experimental: (§2) Eight healthy volunteers were administered Flolan® (Prostacyclin) intravenously at a dose of 4 ng/kg/min for 2 h. Blood samples were analyzed for plasma biomarkers indicative of endothelial cell (thrombomodulin, PAI-1) and glycocalyx (syndecan-1) activation and/or damage, cellular necrosis (histone-complexed DNA fragments, HMGB1) and anticoagulation (protein C, antithrombin, TFPI) at the following time points: Before the infusion (Oh), immediately after ceasing the infusion (2 h) and then 4 h, 5 h, 6 h, 8 h and 24 h after starting the infusion. The concentration of the individual biomarkers in plasma was analyzed by commercially available ELISA kits according to the manufactures recommendations. Paired t-tests with p-values <0.05 were considered significant.

[2] = type: in vivo
Experimental: Ninety-four critically ill patients admitted to the intensive care unit (ICU) underwent haemofiltration with or without concomitant Flolan (prostacycline) treatment. None of the patients were suffering from Acute Traumatic Coagulopathy nor from sequelae to cardiac arrest. Flolan was administered in a low dose in the filters to prevent these from clotting and consequently there was only a minor spill over of Flolan to the systemic circulation. The patients were retrospectively reviewed.
However, patients in the flolan group were more severely ill as evaluated by a lower platelet count at start of hemofiltration, a higher frequency of severe thrombocytopenia, a higher frequency of DIC diagnoses, a higher maximum SOFA score and a higher SOFA score at hemofiltration initiation as compared to the patients receiving non-flolan.

[3] = tested on: whole blood haemostatic competence; assay: Whole blood viscoelastical assay (Thrombelastography, TEG), kaolin activated, in healthy volunteers infused with flolan; type: in vivo, human; details: 6 healthy volunteers, 4 ng/kg/min intravenously, after 60 and 120 min infusion
Experimental: Six healthy volunteers were administered flolan (Prostacycline) intravenously at a dose of 4 ng/kg/min for 2 h. Blood samples for whole blood viscoelastical assay (Thrombelastography [TEG]) and whole blood platelet aggregation (Multiplate) were obtained before infusion of Flolan, after 60 min infusion of Flolan and after 120 min infusion of Flolan. With regard to the TEG assay this was performed as recommended by the manufacturer and 340 μl are mixed with 20 μl CaCl 0.2 M (final concentration 11.1 mM in the cup) and kaolin at 37° C. after which the haemostatic activity is recorded as depicted in FIG. 1.

PAI-1 = assay: Plasma biomarker ELISA after Flolan infusion in healthy volunteers: PAI-1; type: in vivo, human; details: 4 ng/kg/min intravenously for 2 h
Experimental: as §2

[4] = Blood pressure and heart rate during intravenous flolan infusion in healthy volunteers; type: in vivo, human; details: 4 ng/kg/min intravenously for 2 h, any time point
Experimental: as §1

antithrombin = assay: Plasma biomarker ELISA after Flolan infusion in healthy volunteers: antithrombin; type: in vivo, human; details: 4 ng/kg/min intravenously for 2 h
Experimental: as §2

thrombomodulin = assay: Plasma biomarker ELISA after Flolan infusion in healthy volunteers: thrombomodulin; type: in vivo, human; details: 4 ng/kg/min intravenously for 2 h, prolonged for several hours after ceasing the infusion
Experimental: as §2

SMILES: CCCCC[C@H](O)/C=C/[C@@H]1[C@H]2C/C(=C/CCCC(=O)O)O[C@H]2C[C@H]1O [Flolan, epoprostenol sodium]
- Multiplate values (agonists ASPI, COL, ADP, TRAP), baseline vs. during infusion [1]: no significant difference
- circulating level of Protein C (Protein C): decreased
- mortality at 30 days ([2]; ICU patients, low dose Flolan in the haemofiltration filters, vs. 39% non-flolan, p=0.12): 21%
- 90 day mortality ([2]; ICU patients, low dose Flolan in the haemofiltration filters, vs. 53% non-flolan, p=0.10): 34%
- mortality at 365 days ([2]; ICU patients, low dose Flolan in the haemofiltration filters, vs. 57% non-flolan, p=0.09): 38%
- Platelet count (difference before vs. after haemofiltration) ([2]; human, in vivo): +14
- haemostatic competence as evaluated by transfusion requirements ([2]; human, in vivo): does not negatively influence
- total transfusion requirements and specifically of FFP during hemofiltration ([2]; human, in vivo): increased total transfusion requirements
- TEG values (R, Angle, MA), baseline vs. during infusion [3]: No significant difference
- circulating level of PAI-1 (PAI-1): declined
- blood pressure, change from baseline [4]: did not change
- heart rate, change from baseline [4]: did not change
- circulating level of antithrombin (antithrombin): decreased
- circulating level of thrombomodulin (thrombomodulin): marked decrease
